Measurements from patent publication US8951529B2, “Methods of using small compounds to enhance myeloid derived suppressor cell function for treating autoimmune diseases” (Icahn School of Medicine at Mount Sinai, priority 2009, dated 2015).

Assays:
[1] = tested on: CD4+ HA-TCR transgenic splenocytes co-cultured with MDSCs; test: IL-17A production by HA-stimulated splenocytes co-cultured with MDSCs (ELISA); format: cell-based, mouse; settings: splenocytes:MDSCs 3:1, HA peptide, five days, FIG. 3B
Method: Because IL-23 (p40/p19) is essential for the Th17 response, the effects of MDSCs, in the presence of GA, SP600125, or both, on IL-17A expression by CD4+ HA-TCR transgenic splenocytes stimulated with HA peptides was determined. Splenocytes from CD4+ HA-TCR transgenic mice were co-cultured with irradiated MDSCs at the ratio of 3:1 in the presence of HA peptide and SP600125, GA, or a combination of both. Five days later, the culture supernatants were collected for the determination of IL-17A concentration by ELISA.

Gr-1+CD115+ MDSCs [2] = test: MDSC differentiation assay (flow cytometry); format: cell-based, mouse; settings: 24 hours culture, FIG. 4A
Text: Gr-1+CD115+ MDSCs were sorted by MACS and cultured in the absence or presence of GA, SP600125, or both. Twenty-four hours later, viable cells were harvested and stained with anti-CD86, anti-CD80, anti-CD11c, anti-I-A, anti-F4/80, or isotype-matched control followed by flow cytometric analysis to assess MDSC differentiation.
To test whether differentiation of MDSCs can be inhibited or retarded by the treatment of GA, SP600125, or both, Gr-1+CD115+ MDSCs were sorted by MACS and cultured in the absence or presence of GA, SP600125, or both. Twenty-four (24) hours later, viable cells were harvested and stained with anti-CD86, anti-CD80, anti-CD11c, anti-I-A, anti-F4/80, or isotype-matched control followed by flow cytometric analysis. […] Treatment with GA or SP600125 impaired the spontaneous differentiation of MDSCs, as evidenced by the lower expressions of CD11c, MHC class II, co-stimulatory molecules, and F4/80.

Gr-1+CD115+ MDSCs [3] = test: Prolongation of Treg cell inducing activity of pre-treated MDSCs; format: cell-based, mouse; settings: 96 hours pre-treatment, then 5 days co-culture, FIG. 4B
Method: It was further investigated whether the delay of MDSC differentiation correlated with the prolongation of the Treg cell inducing activity mediated by MDSCs. Purified Gr-1+CD115+ MDSCs from tumor-bearing mice were left non-treated or treated with SP600125, GA, or a combination of both for 0, 48, and 96 hours followed by co-culture with CD4 HA TCR transgenic for an additional 5 days. […] The percentages of Treg cell subpopulations were determined by flow cytometry.
In the absence of treatment with GA or SP00125, the Treg cell inducing activity of MDSCs gradually waned over the period of 4-day culture (FIG. 4B).

MLN T cells = test: MLN cell proliferation assay from IBD mice; format: in vivo, mouse; settings: +PHA, 72 hours, [3H]-thymidine, day 11, DSS-treated mice, FIG. 7
Method: On day 11 after IBD induction, mice were terminated, and MLN cells were isolated and cultured in the presence or absence of PHA. [3H]-thymidine was pulsed during the last 8 hours of 72-hour culture for the measurement of T cell proliferation.
To assess the proliferative capability of T cells from treated mice, on day 11 following IBD induction, splenocytes and […] lymph node (MLN) cells from treated mice were stimulated with (+PHA) or without PHA (˜) for 72 hours. [3H]-thymidine was pulsed during the last 8 hours of 72-hour culture. […] The percentage of Treg cells is defined as the percent cells that are stained positive for CD4, CD25, and intracellular Foxp3.

[4] = tested on: TLR 2, 3, and 4 expression in MDSCs; settings: microarray analysis
Text: (§1) Five days later, cells were harvested and stained with anti-CD4-FITC+anti-CD25-APC+anti-Foxp3-PE or isotype controls followed by flow cytometry.

MDSCs = test: Treg induction by MDSCs with or without LPS; format: cell-based, mouse; settings: five days, FIG. 9A
Text: as §1

CD115+ MDSCs = settings: FIG. 9B
Method: IL-10 and IFN-γ levels in the supernatant were measured by ELISA.

IRF-3 = settings: MDSCs stimulated with LPS for 2 hours, FIG. 9C
Text: Actin was used as a loading control. Primary antibodies were anti-NFκB, anti-phospho-IRF3 (pIRF3), and anti-β-actin (Cell Signaling Technologies, Danvers, Mass.).

L-glutamic acid polymer with L-alanine, L-lysine and L-tyrosine, acetate (salt) [GA]
IL-17A production [1]: decreased
spontaneous differentiation of MDSCs (CD11c, MHC class II, co-stimulatory molecules, F4/80) (Gr-1+CD115+ MDSCs [2]): impaired
Treg cell inducing activity of treated MDSCs on day 4 (Gr-1+CD115+ MDSCs [3]): still maintained a significant Treg cell inducing activity
T-cell proliferation of MLN cells (MLN T cells): lower level
levels of TLR 2, 3, and 4 expression in MDSCs [4]: significant reduction
Treg cell induction by MDSCs without LPS (MDSCs; CD4+ HA TCR splenocytes): 11.1%
Treg cell induction by MDSCs with LPS (MDSCs; LPS 100 ng/mL): 5.31%
IFN-γ production induced by LPS in MDSCs (CD115+ MDSCs; 100 ng/mL LPS, 30 hours, ELISA): significantly reduced
IL-10 production by MDSCs (CD115+ MDSCs; with LPS): favors IL-10 production
IRF-3 activation induced by LPS (IRF-3): inhibition
